This is an account of results in US5525617A, “Fibrinogen receptor antagonists” (Merck & Co., Inc., priority 1994, dated 1996).

The test has as its system gel-filtered human platelets. Briefly: in vitro ADP-stimulated platelet aggregation (inhibition). Format: cell-based. The following applies: gel-filtered human platelets 2×10^8 per ml, fibrinogen 100 micrograms per ml, Ca^2+ 1 mM, 10 mM ADP, 37° C., Chronolog aggregometer. On the procedure:
Platelet aggregation is measured at 37° C. in a Chronolog aggregometer. The reaction mixture contains gel-filtered human platelets (2×10^8 per ml), fibrinogen (100 micrograms per ml (ug/ml)), Ca^2+ (1 mM), and the compound to be tested. The aggregation is initiated by adding […] ADP 1 minute after the other components are added. The reaction is then allowed to proceed for at least 2 minutes. The extent of inhibition of aggregation is expressed as the percentage of the rate of aggregation observed in the absence of inhibitor. The IC50 is the dose of a particular compound inhibiting aggregation by 50% relative to a control lacking the compound.
In addition to the following preparative procedures, several examples of in vitro bioactivity of compounds within the scope of the present invention are indicated. To illustrate, one test which is used to evaluate fibrinogen receptor antagonist activity is based on evaluation of inhibition of ADP-stimulated platelets. Aggregation requires that fibrinogen bind to and occupy the platelet fibrinogen receptor site. Inhibitors of fibrinogen binding inhibit aggregation. In the ADP-stimulated platelet aggregation assay used to determine inhibition associated with the compounds claimed in the instant invention, human platelets are isolated from fresh blood, collected into acid citrate/dextrose by differential centrifugation followed by gel filtration on Sepharose 2B in divalent ion-free Tyrode's buffer (pH 7.4) containing 2% bovine serum albumin.
In the case of `O=C(O)CCNC(=O)c1ccc2c(c1)C(=O)C(CCC1CCNCC1)C2` (stereo not drawn), inhibition was half-maximal at 2300 nM (IC50).

As to `CCCCS(=O)(=O)N[C@@H](CNC(=O)c1ccc2c(c1)C(=O)C(CCC1CCNCC1)C2)C(=O)O` (stereo partly drawn), the 50% inhibitory concentration (IC50) (as a rule, the concentration that inhibits the measured activity by half) is 9 nM.

In the case of `CCCCS(=O)(=O)N[C@@H](CNC(=O)c1ccc2c(c1)CC(CCC1CCNCC1)C2)C(=O)O` (stereo partly drawn), the half-maximal inhibitory concentration (IC50) was 14 nM.
